Experimental data reported in US20150203444A1, “POLYMORPHS OF N-((S)-3-AMINO-1-(HYDROXYAMINO)-3-METHYL-1-OXOBUTAN-2-YL)-4-(((1R,2R)-2-(HYDROXYMETHYL)CYCLOPROPYL)BUTA-1,3-DIYNYL)BENZAMIDE” (Achaogen, Inc., priority 2011, published 2015).
Counter-ions that a name gives are not always drawn.

Tests used:
[1] = Stability at elevated humidity (XRPD form check); format: physicochemical; conditions: summary statement
Experimental: Approximately 30 mg of Form A, Form B and Form C were placed on an XRPD slide and kept inside a glass jar containing a water solution saturated with NaCl. The solution maintains 75% relative humidity inside the jar. The container was covered with aluminum foil to prevent exposure to light. The sample was kept in this environment for seven days at room temperature. After this time period the slide was removed from the chamber and analyzed immediately by XRPD (see Table 4).

[2] = Stability at elevated temperature (XRPD form check and HPLC purity); format: physicochemical; conditions: for % AUC (Following exposure): HPLC purity after seven days at 60° C.; for % AUC (Control): HPLC purity, control before exposure
Experimental: Approximately 10 mg of Form A, Form B and Form C were weighed to individual 4-mL amber vials covered with a kimwipe and stored in an oven at 60° C. and ambient pressure. After seven days of exposure, the solids were be analyzed by XRPD to check for form conversion and HPLC for purity (see Table 5).

[3] = Competitive slurry experiments (XRPD); format: physicochemical; conditions: competitive slurry of Forms A, B and C together, IPA:IBAc (10:90), room temperature
Experimental: Approximately 10 mg of Form A, B and C were weighed into 2.0-mL vials equipped with a stir bar. 0.5 mL of solvent was added and the resulting free flowing slurry was allowed to equilibrate with stirring at room temperature. Samples were pulled at one day and seven day time points, filtered through 0.45 micron centrifuge filters, dried overnight at room temperature under vacuum and analyzed by XRPD (see Table 7).

[4] = Solid-state properties of the polymorphs (summary statement); format: physicochemical
[5] = tested on: Pseudomonas aeruginosa ATCC27853; experiment: MIC by broth microdilution (CLSI), APAE001; format: cell-based; conditions: ATCC27853, read-out: Minimum Inhibitory Concentration (MIC) APAE001
Experimental: (§1) Bacterial isolates were cultivated from −70° C. frozen stocks by overnight passages at 35° C. in ambient air on Mueller-Hinton agar (Beckton Dickinson, Franklin Lakes, N.J.). Clinical isolates tested were obtained from various geographically diverse hospitals in the US and abroad (Focus Diagnostics, Herndon, Va. and JMI, North Liberty, Iowa). Quality control strains were from the American Type Culture Collection (ATCC; Rockville, Md.).
(§2) Minimum Inhibitory Concentrations (MICs) were determined by the broth microdilution method in accordance with the Clinical and Laboratory Standards Institute (CLSI) guidelines. In brief, organism suspensions were adjusted to a 0.5 McFarland standard to yield a final inoculum between 3×10^5 and 7×10^5 colony-forming units (CFU)/mL. Drug dilutions and inocula were made in sterile, cation adjusted Mueller-Hinton Broth (Beckton Dickinson). An inoculum volume of 100 μL was added to wells containing 100 μL of broth with 2-fold serial dilutions of drug. All inoculated microdilution trays were incubated in ambient air at 35° C. for 18-24 h. Following incubation, the lowest concentration of the drug that prevented visible growth (OD600 nm<0.05) was recorded as the MIC. Performance of the assay was monitored by the use of laboratory quality-control strains and levofloxacin, a compound with a defined MIC spectrum, in accordance with CLSI guidelines. […]

E. coli ATCC25922 = experiment: MIC by broth microdilution (CLSI), AECO001; format: cell-based; conditions: Escherichia coli, ATCC25922, read-out: Minimum Inhibitory Concentration (MIC) AECO001
Experimental: as §1, §2

[6] = tested on: clinical isolate of Pseudomonas aeruginosa expressing a normal level of efflux activity; experiment: MIC by broth microdilution (CLSI), APAE002; format: cell-based; conditions: read-out: Minimum Inhibitory Concentration (MIC) APAE002
Experimental: as §1, §2

[7] = tested on: Klebsiella pneumoniae ATCC43816; experiment: MIC by broth microdilution (CLSI), AKPN001; format: cell-based; conditions: ATCC43816, read-out: Minimum Inhibitory Concentration (MIC) AKPN001
Experimental: as §1, §2

| SMILES | Stability to exposure to elevated relative humidity [1] | % AUC (Following exposure) [2] | % AUC (Control) [2] | Stability to prolonged thermal stress ([2]; summary statement) | XRPD Final Form (1 day) [3] | Thermodynamic stability among the three polymorphic forms [4] | Hygroscopicity ([4]; solid) | MIC [5] | MIC (E. coli ATCC25922) | MIC [6] | MIC [7] |
| --- | --- | --- | --- | --- | --- | --- | --- | --- | --- | --- | --- |
| CC(C)(N)[C@H](NC(=O)c1ccc(C#CC#C[C@@H]2C[C@H]2CO)cc1)C(=O)NO [Form B, N—((S)-3-amino-1-(hydroxyamino)-3-methyl-1-oxobutan-2-yl)-4-(((1R,2R)-2-(hydroxymethyl)cyclopropyl)buta-1,3-diynyl)benzamide] | exhibited stability | 97.4 % AUC | 99.6 % AUC | exhibited stability | A + B | most thermodynamically stable |  |  |  |  |  |
| CC(C)(N)[C@H](NC(=O)c1ccc(C#CC#C[C@@H]2C[C@H]2CO)cc1)C(=O)NO [Form A, N—((S)-3-amino-1-(hydroxyamino)-3-methyl-1-oxobutan-2-yl)-4-(((1R,2R)-2-(hydroxymethyl)cyclopropyl)buta-1,3-diynyl)benzamide] |  | 94.5 % AUC | 99.2 % AUC |  | A + B |  | moderately hygroscopic |  |  |  |  |
| CC(C)(N)[C@H](NC(=O)c1ccc(C#CC#C[C@@H]2C[C@H]2CO)cc1)C(=O)NO [I (trifluoroacetate salt), N—((S)-3-amino-1-(hydroxyamino)-3-methyl-1-oxobutan-2-yl)-4-(((1R,2R)-2-(hydroxymethyl)cyclopropyl)buta-1,3-diynyl)benzamide trifluoroacetate salt] |  |  |  |  |  |  |  | < 2 µg/mL | < 2 µg/mL | < 2 µg/mL | < 2 µg/mL |
| CC(C)(N)[C@H](NC(=O)c1ccc(C#CC#C[C@@H]2C[C@H]2CO)cc1)C(=O)NO [Form C, N—((S)-3-amino-1-(hydroxyamino)-3-methyl-1-oxobutan-2-yl)-4-(((1R,2R)-2-(hydroxymethyl)cyclopropyl)buta-1,3-diynyl)benzamide] |  | 95.5 % AUC | 99.0 % AUC |  | A + B | metastable |  |  |  |  |  |
